In paper PMC9959553, “Promising Antifungal Molecules against Mucormycosis Agents Identified from Pandemic Response Box®: In Vitro and In Silico Analyses” (Journal of Fungi, 2023):
≈ marks a conversion by molar mass, not a printed value. Where “and” joins values, the source holds several entries; their conditions need not be identical. Identical values can stand only once.

How the values were obtained:
R. microsporus = assay: Antifungal susceptibility testing (broth microdilution, MIC and MFC); type: cell-based, Rhizopus microsporus var. microsporus; settings: for Selectivity Index (SI), Planktonic Cell: R. microsporus, from CC50 and MIC50 of planktonic cells; for MIC50 / MFC: Rhizopus microsporus, 48 h; for MIC50: lowest concentration that inhibits 50% of fungal growth; for MFC: subculture in drug-free medium
Protocol: The susceptibility of the Rhizopus species to MMV396785 (alexidine), MMV1580844, MMV642550 and MMV019724 was determined using the broth microdilution method, according to EUCAST protocols, with modifications. Posaconazole and amphotericin B were also used as reference antifungal drugs because they are commonly used for the treatment of mucormycosis. […] A standardized suspension of conidia (2 × 10^5/mL) was added to the wells and incubated for 48 h at 37 °C, in a 5% CO2 atmosphere. Fungal growth was analyzed via spectrophotometry readings at 600 nm and cell viability was assessed using the XTT reduction assay. Minimum inhibitory concentration (MIC) of each compound was defined as the lowest concentration that inhibits 50% of fungal growth, because these fungi are highly resistant to antifungal drugs and a reduction in half of their growth is relevant. […] MFC values were defined as the lowest drug concentration able to arrest fungal growth.

R. oryzae biofilm = assay: Biofilm formation assay; type: cell-based, Rhizopus oryzae; settings: at MIC
Protocol: (§1) Biofilm formation assay was performed according to Rollin-Pinheiro and colleagues. Biofilms were grown on the surface of sterile polystyrene microplates (96-well). Briefly, serial dilutions of selected compounds were prepared in RPMI 1640 medium (8–¼× MIC) and deposited in 100 µL aliquots in microplate wells. Subsequently, 100 µL containing 10^5 Rhizopus conidia in RPMI 1640 medium was added to each well and incubated for 48 h at 37 °C.
(§2) For the preformed biofilm assay, cells were cultured as described above in the absence of the compounds. […] An additional incubation of 24 h at 37 °C was performed to evaluate the anti-biofilm activity. Evaluation of both biofilm formation and preformed biofilms was performed using three parameters as previously described. Crystal violet, safranin and XTT assays were used to analyze the overall biomass, extracellular matrix and metabolic activity, respectively.

R. microsporus biofilm = assay: Biofilm formation assay; type: cell-based, Rhizopus microsporus; settings: at MIC
Protocol: as §1, §2

R. stolonifer biofilm = assay: Biofilm formation assay; type: cell-based, Rhizopus stolonifer
Protocol: as §1, §2

[1] = system: R. oryzae preformed biofilm; assay: Preformed biofilm assay; type: cell-based, Rhizopus oryzae; settings: for Selectivity Index (SI), Preformed Biofilm: R. oryzae, based on biofilm viability parameter
Protocol: as §2

[2] = system: R. microsporus preformed biofilm; assay: Preformed biofilm assay; type: cell-based, Rhizopus microsporus; settings: for Selectivity Index (SI), Preformed Biofilm: R. microsporus, based on biofilm viability parameter
Protocol: as §2

R. oryzae cells = assay: Analysis of fungal cell alterations with fluorescent staining; type: cell-based, Rhizopus oryzae; settings: ½× MIC50, 48 h
Protocol: Alterations of R. oryzae cells caused by alexidine, MMV1580844, MMV642550 and MMV019724 were analyzed using fluorescent staining. Chitin, nucleic acid, oxidative stress, mitochondrial membrane potential and neutral lipid content were evaluated using calcofluor white (Sigma-Aldrich, MO, USA), Sytox Blue (ThermoFisher, Waltham, MA, USA), 2′,7′–dichlorofluorescein diacetate (DCFH-DA) (Sigma-Aldrich, MO, USA), JC-1 probe (ThermoFisher, Waltham, MA, USA) and Nile Red (Sigma-Aldrich, MO, USA), respectively. […] Cells were stained with 25 μg/mL of calcofluor white, 20 μM of Sytox Blue, 50 μg/mL of DCFH-DA, 10 μg/mL of JC-1 or 20 μg/mL of Nile Red, all of them for 1 h at 37 °C in the dark. Samples were washed three times to remove residual dye and suspended in PBS. Fluorescence intensity was measured using the SpectraMax 340 microplate reader (Molecular Devices, San José, CA, USA) under the following conditions: calcofluor white at 350 nm (excitation) and 432 nm (emission); Sytox Blue at 444 nm (excitation) and 480 nm (emission); DCFH-DA at 492 nm (excitation) and 517 nm (emission); JC-1 at 475 nm (excitation) and 529 nm (green fluorescence) or 590 nm (red fluorescence) for the calculation of the red/green fluorescence intensity; and Nile Red at 550 nm (excitation) and 635 nm (emission).

R. oryzae = assay: Antifungal drug synergy assay, Bliss independence model; type: cell-based, Rhizopus oryzae; parameters: key to Interaction: S, synergistic interaction; A, antagonist interaction; Efficacy of Combined Drugs, E obs / Efficacy of Combined Drugs, E exp: concentration or dose not given beside the values; settings: for Efficacy of Drugs Alone (% of Inhibition), MIC50: at MIC50; for Efficacy of Drugs Alone (% of Inhibition), ½ MIC50: at ½ MIC50; for ΔE: Eobs minus Eexp; for Efficacy of Combined Drugs, E exp: expected by Bliss calculation
Protocol: Synergistic interactions were evaluated using the checkerboard method according to EUCAST guidelines (EUCAST 2008). R. oryzae conidia (2 × 10^5/mL) were grown in 96-well plates containing supplemented RPMI in the presence of the following selected compounds: […] An inhibition of at least 50% was defined as the cut-off for minimum inhibitory concentration (MIC). Interactions were determined by the fractional inhibitory concentration index (FICI), which was calculated using the following formula: (MIC combined/MIC drug A alone) + (MIC combined/MIC drug B alone). […] The Bliss independence model calculation was performed according to […] colleagues and Zhao and colleagues. The following formula was used to assess drug interaction: […] The results were classified as follows: synergistic effect when Eobs > Eexp; indifference when Eobs = Eexp; antagonistic effect when Eobs < Eexp.

A549 cells = system: A549 cells; parameters: method as in PMID 30381356; settings: cited from earlier work
[3] = system: Staphylococcus aureus, Balamuthia mandrillaris, C. albicans, C. glabrata and C. auris; parameters: method as in PMID 23375226, PMID 24568657, PMID 32560115, PMID 22347365; settings: for all of the listed species; cited from earlier work
A549 cell line = system: A549 cell line; parameters: method as in PMID 32560115; settings: cited from earlier work
C. auris = settings: cited from earlier work
Cryptococcus species = settings: cited from earlier work
S. brasiliensis = system: S. brasiliensis; parameters: method as in PMID 36294569; settings: cited from earlier work
S. schenckii = system: S. schenckii; parameters: method as in PMID 36294569; settings: cited from earlier work
[4] = preformed biofilm, 24 h treatment

| MIC50 (R. microsporus) | Efficacy of Drugs Alone (% of Inhibition), MIC50 (R. oryzae) | Efficacy of Drugs Alone (% of Inhibition), ½ MIC50 (R. oryzae) | Structure (SMILES) | MFC (R. microsporus) | chitin content (calcofluor white) (R. oryzae cells) | mitochondrial membrane potential (JC-1) (R. oryzae cells) | neutral lipids (Nile Red) (R. oryzae cells) | Efficacy of Combined Drugs, E obs (R. oryzae; combined with Amphotericin B) | Interaction (R. oryzae; combined with Amphotericin B) | ΔE (R. oryzae; combined with Amphotericin B) | Efficacy of Combined Drugs, E exp (R. oryzae; combined with Amphotericin B) | Efficacy of Combined Drugs, E obs (R. oryzae; combined with Posaconazole) | Interaction (R. oryzae; combined with Posaconazole) | ΔE (R. oryzae; combined with Posaconazole) | Efficacy of Combined Drugs, E exp (R. oryzae; combined with Posaconazole) | Selectivity Index (SI), Planktonic Cell (R. microsporus) | Selectivity Index (SI), Preformed Biofilm [2] | IC50 (A549 cell line) | further results |
| --- | --- | --- | --- | --- | --- | --- | --- | --- | --- | --- | --- | --- | --- | --- | --- | --- | --- | --- | --- |
| 1.25 µM (≈ 0.636 µg/mL) | 67.6 % of Inhibition | 21.5 % of Inhibition | CCCCC(CC)CNC(=N)NC(=N)NCCCCCCNC(=N)NC(=N)NCC(CC)CCCC (stereo not drawn) [MMV396785, Alexidine, reference compound] | 1.25 µM (≈ 0.636 µg/mL) | reduction | did not affect | reduction | 85.9% | S | 1.7% | 84.2% | 91.9% | A | −4.7% | 96.6% | – | – | – | Selectivity Index (SI), Planktonic Cell (R. microsporus; listed as Alexidina MMV396785): >40; biofilm biomass, extracellular matrix and viability decreased to (R. oryzae biofilm): 25%; biofilm biomass, extracellular matrix and viability decreased to (R. microsporus biofilm): 25%; concentration giving reduction in biofilm parameters (R. stolonifer biofilm): ≥ 2 × MIC; Selectivity Index (SI), Preformed Biofilm ([1]; listed as Alexidina MMV396785): >20; concentration giving significant decrease in biofilm parameters [1, 4]: 2 × MIC; Selectivity Index (SI), Preformed Biofilm ([2]; listed as Alexidina MMV396785): >20; concentration giving significant decrease in biofilm parameters [2, 4]: 2 × MIC; DNA content (Sytox blue) (R. oryzae cells): reduction; concentration that damaged cells (A549 cells): 14.7 µg/mL and 28.89 µM |
| 1.25 µM (≈ 0.562 µg/mL) | 62.0 % of Inhibition | 32.5 % of Inhibition | Oc1c(C(Nc2nc3ccccc3s2)c2ccc(OC(F)F)cc2)ccc2cccnc12 (stereo not drawn) [MMV019724] | > 20 µM | lower levels | mitochondrial alterations | lower levels | 74.8% | A | −7.3% | 82.1% | 58.0% | A | −5.6% | 63.6% | >40 | >40 | 6.2 µM | Selectivity Index (SI), Preformed Biofilm [1]: >10; concentration able to inhibit 90% of growth (C. auris): 2.5 µM; concentration able to inhibit 90% of growth (Cryptococcus species): 5 µM; concentration that inhibits 50% (S. brasiliensis): 0.25 µM; concentration that inhibits 50% (S. schenckii): 1 µM |

| Structure (SMILES) | MIC50 (R. microsporus) | Efficacy of Drugs Alone (% of Inhibition), MIC50 (R. oryzae) | Efficacy of Drugs Alone (% of Inhibition), ½ MIC50 (R. oryzae) | MFC (R. microsporus) | chitin content (calcofluor white) (R. oryzae cells) | mitochondrial membrane potential (JC-1) (R. oryzae cells) | neutral lipids (Nile Red) (R. oryzae cells) | Efficacy of Combined Drugs, E obs (R. oryzae; combined with Amphotericin B) | Interaction (R. oryzae; combined with Amphotericin B) | ΔE (R. oryzae; combined with Amphotericin B) | Efficacy of Combined Drugs, E exp (R. oryzae; combined with Amphotericin B) | Efficacy of Combined Drugs, E obs (R. oryzae; combined with Posaconazole) | Interaction (R. oryzae; combined with Posaconazole) | ΔE (R. oryzae; combined with Posaconazole) | Efficacy of Combined Drugs, E exp (R. oryzae; combined with Posaconazole) | Selectivity Index (SI), Planktonic Cell (R. microsporus) | Selectivity Index (SI), Preformed Biofilm [2] | IC50 (A549 cell line) | further results |
| --- | --- | --- | --- | --- | --- | --- | --- | --- | --- | --- | --- | --- | --- | --- | --- | --- | --- | --- | --- |
| CCc1nc(N)nc(N)c1C#CC(C)c1cc(OC)cc(-c2ccncc2)c1 (stereo not drawn) [MMV1580844] | 0.08 µM (≈ 0.0299 µg/mL) | 63.5 % of Inhibition | 12.6 % of Inhibition | > 20 µM | – | depolarization of mitochondrial membranes | – | 60.5% | S | 2.3% | 58.2% | 60.2% | A | −17.4% | 77.6% | >625 | >156.3 | > 10 µM | oxidative stress, ROS (DCFH-DA) (R. oryzae cells): induced oxidative stress; MIC [3]: lower than 100 nM |
